In ChEMBL document CHEMBL2069220, “Targeting peroxisome proliferator-activated receptors (PPARs): development of modulators” (J Med Chem, 2012):

Experiments:
[1] = molecular target: T1, Peroxisome proliferator-activated receptor gamma (Homo sapiens, UniProt P37231); experiment: Binding affinity to PPARgamma
T1 sequence (P37231 whole entry): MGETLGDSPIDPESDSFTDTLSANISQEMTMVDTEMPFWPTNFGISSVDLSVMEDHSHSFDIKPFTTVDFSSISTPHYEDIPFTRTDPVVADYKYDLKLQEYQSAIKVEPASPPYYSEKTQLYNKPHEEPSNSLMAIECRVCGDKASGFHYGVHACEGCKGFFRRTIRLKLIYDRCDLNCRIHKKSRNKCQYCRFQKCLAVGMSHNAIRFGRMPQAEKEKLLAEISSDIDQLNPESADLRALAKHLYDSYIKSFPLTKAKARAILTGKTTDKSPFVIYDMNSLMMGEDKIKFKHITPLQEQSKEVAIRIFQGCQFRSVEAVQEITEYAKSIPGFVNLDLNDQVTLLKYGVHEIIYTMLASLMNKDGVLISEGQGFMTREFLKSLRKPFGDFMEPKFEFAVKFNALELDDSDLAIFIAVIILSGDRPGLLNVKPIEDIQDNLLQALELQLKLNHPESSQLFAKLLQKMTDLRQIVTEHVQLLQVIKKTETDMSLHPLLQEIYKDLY

Homo sapiens [2] = organism: Homo sapiens; experiment: Selectivity ratio for PPRalpha over PPRgamma
Homo sapiens [3] = organism: Homo sapiens; experiment: Selectivity ratio for PPRbeta/delta over PPRgamma
[4] = molecular target: T2, Peroxisome proliferator-activated receptor alpha (Homo sapiens, UniProt Q07869); experiment: Agonist activity at PPARalpha; format: functional
T2 sequence (Q07869 whole entry): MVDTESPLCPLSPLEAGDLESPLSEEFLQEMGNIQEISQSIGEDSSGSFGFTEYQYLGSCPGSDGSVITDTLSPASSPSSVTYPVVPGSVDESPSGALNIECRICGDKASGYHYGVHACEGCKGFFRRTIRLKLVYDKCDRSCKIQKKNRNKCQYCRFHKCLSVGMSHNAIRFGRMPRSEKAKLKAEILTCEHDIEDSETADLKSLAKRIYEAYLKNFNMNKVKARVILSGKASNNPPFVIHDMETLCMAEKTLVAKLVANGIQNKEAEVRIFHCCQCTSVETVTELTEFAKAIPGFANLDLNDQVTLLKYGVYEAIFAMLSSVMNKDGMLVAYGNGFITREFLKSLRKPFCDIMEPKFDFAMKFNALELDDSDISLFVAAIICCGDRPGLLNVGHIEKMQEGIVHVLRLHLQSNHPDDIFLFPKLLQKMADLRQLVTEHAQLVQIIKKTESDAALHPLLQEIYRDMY

Mus musculus [5] = organism: Mus musculus; experiment: Selectivity ratio for mouse PPRalpha over mouse PPRbeta/delta
Homo sapiens [6] = organism: Homo sapiens; experiment: Selectivity ratio for human PPRgamma over human PPRbeta/delta
Mus musculus [7] = organism: Mus musculus; experiment: Selectivity ratio for mouse PPRgamma to mouse PPRbeta/delta
Homo sapiens [8] = organism: Homo sapiens; experiment: Selectivity ratio for human PPRalpha over human PPRbeta/delta

Q: Which Kd [1] does the source give for CCCCCC(O)/C=C\C=C/CCCCCCCC(=O)O (stereo not drawn) here?
A: 2000 nM

Q: For CC/C=C\C/C=C\C/C=C\C/C=C\C/C=C\CCCC(=O)O [ICOSAPENT], which Kd [1] is on record?
A: 2000 nM

Q: What does the source list for COC(=O)c1ccccc1N[C@@H](Cc1ccc(OCCc2nc(-c3ccccc3)oc2C)cc1)C(=O)O?
A: Selectivity ratio (Homo sapiens [2]): > 1000; Selectivity ratio (Homo sapiens [3]): > 1000

Q: For CC(C)(Oc1ccc(CCOc2ccc(/C=C/C(=O)c3cc(Cl)ccc3O)cc2)cc1)C(=O)O, which EC50 [4] is on record?
A: 60 nM

Q: For CCCCC/C=C/C=C1/C(=O)C=C[C@@H]1C/C=C\CCCC(=O)O, which Kd [1] is on record?
A: 2000 nM

Q: For CCCCC/C=C\C=C\C(O)CCCCCCCC(=O)O (stereo not drawn), which Kd [1] is on record?
A: 2000 nM

Q: With CCCc1c(OCCCOc2ccc(OCC(=O)O)cc2)ccc(C(C)=O)c1O as the compound, how does the Selectivity ratio (Mus musculus [5]) read?
A: > 100

Q: What about the Selectivity ratio (Homo sapiens [6]) of the same compound?
A: > 100

Q: What about the Selectivity ratio (Mus musculus [7]) of the same compound?
A: > 100

Q: What about the Selectivity ratio (Homo sapiens [8]) of the same compound?
A: > 100

Q: With CN(CCOc1ccc(C[C@H](Nc2ccccc2C(=O)c2ccccc2)C(=O)O)cc1)c1ccccn1 as the compound, how does the Selectivity ratio (Homo sapiens [2]) read?
A: > 1000

Q: And the Selectivity ratio (Homo sapiens [3])?
A: > 1000
